According to the NIST ThermoML archive (doi:10.1021/je2008704):

Conditions: Liquid, Ebulliometric method (Recirculating still)

O [water]
Conditions	vapor or sublimation pressure [kPa]
349.09 K	40
356.17 K	53.33
361.87 K	66.66
366.69 K	79.99
370.88 K	93.32
372.76 K	100

CCO [ethanol]
Conditions	vapor or sublimation pressure [kPa]
329.67 K	40
336.06 K	53.33
341.23 K	66.66
345.59 K	79.99
349.38 K	93.32
351.03 K	99.74

OCCO [1,2-ethanediol]
Conditions	vapor or sublimation pressure [kPa]
412.81 K	13.33
422.78 K	20
430.26 K	26.66
436.37 K	33.33
441.5 K	40
445.96 K	46.66
449.93 K	53.33
453.52 K	60
456.78 K	66.66
459.79 K	73.33
462.58 K	79.99
465.18 K	86.66
467.62 K	93.32
469.48 K	98.66
470.02 K	100.4
